{"source": "ChEMBL document CHEMBL1129258", "about": "“Synthesis and structure-activity relationships of 2-pyridones: a novel series of potent DNA gyrase inhibitors as antibacterial agents” (J Med Chem, 1996)", "data": [{"target": "T1, DNA gyrase (Staphylococcus aureus) (UniProt P0A0K8+P20831)", "T1 sequence (P0A0K8 2-644 limits assumed)": "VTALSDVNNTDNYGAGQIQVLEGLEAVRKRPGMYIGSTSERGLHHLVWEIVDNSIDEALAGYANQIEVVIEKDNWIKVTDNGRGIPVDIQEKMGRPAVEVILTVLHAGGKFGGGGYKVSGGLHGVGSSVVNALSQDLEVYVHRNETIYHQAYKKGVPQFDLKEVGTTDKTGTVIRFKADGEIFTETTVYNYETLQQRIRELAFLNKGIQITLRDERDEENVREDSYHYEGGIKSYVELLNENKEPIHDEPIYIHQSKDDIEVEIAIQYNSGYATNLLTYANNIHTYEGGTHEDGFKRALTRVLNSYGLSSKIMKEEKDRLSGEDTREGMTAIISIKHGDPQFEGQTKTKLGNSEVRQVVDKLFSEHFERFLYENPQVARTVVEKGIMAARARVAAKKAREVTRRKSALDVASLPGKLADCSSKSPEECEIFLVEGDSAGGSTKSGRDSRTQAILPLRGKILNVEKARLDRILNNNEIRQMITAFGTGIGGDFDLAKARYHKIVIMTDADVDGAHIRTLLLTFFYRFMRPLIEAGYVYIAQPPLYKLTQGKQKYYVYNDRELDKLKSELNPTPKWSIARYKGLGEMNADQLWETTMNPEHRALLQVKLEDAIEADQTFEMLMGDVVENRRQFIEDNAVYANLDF", "T1 sequence (P20831 whole entry partner)": "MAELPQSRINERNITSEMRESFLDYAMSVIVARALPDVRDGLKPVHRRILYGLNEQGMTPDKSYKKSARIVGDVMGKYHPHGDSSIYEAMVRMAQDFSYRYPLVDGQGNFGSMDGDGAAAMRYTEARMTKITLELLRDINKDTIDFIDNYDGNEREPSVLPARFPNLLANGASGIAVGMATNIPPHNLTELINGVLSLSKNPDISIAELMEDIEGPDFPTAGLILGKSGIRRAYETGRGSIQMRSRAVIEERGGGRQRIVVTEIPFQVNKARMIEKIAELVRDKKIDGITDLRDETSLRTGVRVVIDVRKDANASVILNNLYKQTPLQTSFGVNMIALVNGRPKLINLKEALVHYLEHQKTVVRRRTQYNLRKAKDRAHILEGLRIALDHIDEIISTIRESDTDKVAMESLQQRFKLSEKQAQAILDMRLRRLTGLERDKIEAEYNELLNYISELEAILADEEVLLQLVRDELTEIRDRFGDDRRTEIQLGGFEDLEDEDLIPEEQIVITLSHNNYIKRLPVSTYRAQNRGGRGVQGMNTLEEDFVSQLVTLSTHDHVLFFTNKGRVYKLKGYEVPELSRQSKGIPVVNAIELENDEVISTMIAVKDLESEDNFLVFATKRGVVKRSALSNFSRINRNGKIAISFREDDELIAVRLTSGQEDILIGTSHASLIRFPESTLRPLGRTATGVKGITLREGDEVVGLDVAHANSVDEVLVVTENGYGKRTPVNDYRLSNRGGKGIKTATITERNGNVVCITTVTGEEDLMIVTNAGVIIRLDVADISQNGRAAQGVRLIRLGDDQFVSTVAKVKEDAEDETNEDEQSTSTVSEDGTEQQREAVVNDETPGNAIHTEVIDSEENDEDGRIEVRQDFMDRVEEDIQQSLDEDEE", "assay": "In vitro antibacterial activity against gram-positive organism Staphylococcus aureus NCTC-10649M", "assay_type": "functional", "details": "not given", "units": {"MIC": "µg/mL"}, "values": [{"smiles": "CNC1CCN(c2c(F)cn3c(=O)c(C(=O)O)cc(C4CC4)c3c2C)C1", "note": "(stereo not given)", "MIC": 0.02}]}, {"target": "T2, DNA gyrase (Escherichia coli) (UniProt P0AES6+P0AES4)", "assay": "In vitro antibacterial activity against gram-negative organism Prov. stuartii CMX-640", "assay_type": "functional", "details": "Providencia stuartii", "units": {"MIC": "µg/mL"}, "values": [{"smiles": "CNC1CCN(c2c(F)cn3c(=O)c(C(=O)O)cc(C4CC4)c3c2C)C1", "note": "(stereo not given)", "MIC": 0.39}]}, {"target": "T1, DNA gyrase (Staphylococcus aureus)", "assay": "In vivo efficacy against Staphylococcus aureus NCTC-10649M after oral administration", "assay_type": "functional, organism-based", "details": "not given", "units": {"ED50": "mg/kg"}, "values": [{"smiles": "CC(NC(=O)C(C)NC1CCN(c2nc3c(-c4ccc(F)cc4F)cc(C(=O)O)c(=O)n3cc2F)C1)C(=O)O", "note": "(stereo not given)", "ED50": 3}, {"smiles": "CNC1CCN(c2c(F)cn3c(=O)c(C(=O)O)cc(C4CC4)c3c2C)C1", "note": "(stereo not given)", "ED50": "< 3.1"}]}, {"tested_on": "Streptococcus pneumoniae", "assay": "(§1) In vivo efficacy against Strep. administration", "assay_type": "functional", "details": "not given", "units": {"ED50": "mg/kg"}, "values": [{"smiles": "CC(NC(=O)C(C)NC1CCN(c2nc3c(-c4ccc(F)cc4F)cc(C(=O)O)c(=O)n3cc2F)C1)C(=O)O", "note": "(stereo not given)", "ED50": 49.7}]}, {"tested_on": "Streptococcus pneumoniae", "assay": "as §1", "assay_type": "functional", "details": "Streptococcus pneumoniae; read-out: ED50", "units": {"ED50": "mg/kg"}, "values": [{"smiles": "CC(NC(=O)C(C)NC1CCN(c2nc3c(-c4ccc(F)cc4F)cc(C(=O)O)c(=O)n3cc2F)C1)C(=O)O", "note": "(stereo not given)", "ED50": 140}]}, {"tested_on": "Streptococcus pyogenes", "assay": "In vitro antibacterial activity against gram-positive organism Streptococcus pyogenes EES61", "assay_type": "functional", "details": "Streptococcus pyogenes; read-out: MIC", "units": {"MIC": "µg/mL"}, "values": [{"smiles": "CNC1CCN(c2c(F)cn3c(=O)c(C(=O)O)cc(C4CC4)c3c2C)C1", "note": "(stereo not given)", "MIC": 0.05}]}, {"tested_on": "not listed separately", "assay": "In vitro antibacterial activity against gram-negative organism Pseudomonas aeruginosa 5007", "assay_type": "functional", "details": "Pseudomonas aeruginosa; read-out: MIC", "units": {"MIC": "µg/mL"}, "values": [{"smiles": "CNC1CCN(c2c(F)cn3c(=O)c(C(=O)O)cc(C4CC4)c3c2C)C1", "note": "(stereo not given)", "MIC": 0.2}]}, {"tested_on": "not listed separately", "assay": "In vitro antibacterial activity against gram-negative organism Pseudomonas aeruginosa DPHD-2862", "assay_type": "functional", "details": "Pseudomonas aeruginosa; read-out: MIC", "units": {"MIC": "µg/mL"}, "values": [{"smiles": "CNC1CCN(c2c(F)cn3c(=O)c(C(=O)O)cc(C4CC4)c3c2C)C1", "note": "(stereo not given)", "MIC": 1.56}]}, {"target": "T2, DNA gyrase (Escherichia coli)", "assay": "In vitro antibacterial activity against gram-positive organism Enterococcus faecium ATCC 8043", "assay_type": "functional", "details": "not given", "units": {"MIC": "µg/mL"}, "values": [{"smiles": "CNC1CCN(c2c(F)cn3c(=O)c(C(=O)O)cc(C4CC4)c3c2C)C1", "note": "(stereo not given)", "MIC": 0.1}]}, {"tested_on": "Enterococcus faecalis", "assay": "Inhibitory activity against enterococcus faecalis Van B", "assay_type": "functional", "details": "not given", "units": {"MIC": "µg/mL"}, "values": [{"smiles": "CNC1CCN(c2c(F)cn3c(=O)c(C(=O)O)cc(C4CC4)c3c2C)C1", "note": "(stereo not given)", "MIC": 0.06}]}, {"tested_on": "not listed separately", "assay": "physchem", "details": "phosphate buffer, pH 7.4", "units": {"solubility": "µg/mL"}, "description": "Aqueous solubility in pH 7.4 phosphate buffer (0.05 M) at 37 degree C", "values": [{"smiles": "CC(NC(=O)C(C)NC1CCN(c2nc3c(-c4ccc(F)cc4F)cc(C(=O)O)c(=O)n3cc2F)C1)C(=O)O", "note": "(stereo not given)", "solubility": 1000}]}, {"target": "T2, DNA gyrase (Escherichia coli)", "assay": "In vitro antibacterial against gram-negative organism Escherichia coli JUHL", "assay_type": "functional", "details": "Escherichia coli K-12", "units": {"MIC": "ng/mL"}, "values": [{"smiles": "CNC1CCN(c2c(F)cn3c(=O)c(C(=O)O)cc(C4CC4)c3c2C)C1", "note": "(stereo not given)", "MIC": 5}]}, {"tested_on": "Escherichia coli", "assay": "In vivo efficacy against Escherichia coli JUHL by orally administered.", "assay_type": "functional", "details": "po", "units": {"ED50": "mg/kg"}, "values": [{"smiles": "CNC1CCN(c2c(F)cn3c(=O)c(C(=O)O)cc(C4CC4)c3c2C)C1", "note": "(stereo not given)", "ED50": 1.1}]}, {"target": "T2, DNA gyrase (Escherichia coli)", "assay": "In vivo efficacy against Escherichia coli JUHL by subcutaneous administration", "assay_type": "functional, organism-based", "details": "Escherichia coli K-12", "units": {"ED50": "mg/kg"}, "values": [{"smiles": "CC(NC(=O)C(C)NC1CCN(c2nc3c(-c4ccc(F)cc4F)cc(C(=O)O)c(=O)n3cc2F)C1)C(=O)O", "note": "(stereo not given)", "ED50": "< 2.5"}, {"smiles": "CNC1CCN(c2c(F)cn3c(=O)c(C(=O)O)cc(C4CC4)c3c2C)C1", "note": "(stereo not given)", "ED50": 0.7}]}, {"target": "T2, DNA gyrase (Escherichia coli)", "assay": "not given", "details": "Escherichia coli K-12", "units": {"CC50": "µg/mL"}, "values": [{"smiles": "CNC1CCN(c2c(F)cn3c(=O)c(C(=O)O)cc(C4CC4)c3c2C)C1", "note": "(stereo not given)", "CC50": 0.08}]}, {"target": "T1, DNA gyrase (Staphylococcus aureus)", "assay": "In vitro antibacterial activity against gram-positive organism Staphylococcus aureus 1775", "assay_type": "functional", "details": "not given", "units": {"MIC": "µg/mL"}, "values": [{"smiles": "CNC1CCN(c2c(F)cn3c(=O)c(C(=O)O)cc(C4CC4)c3c2C)C1", "note": "(stereo not given)", "MIC": 1.56}]}, {"tested_on": "not listed separately", "assay": "In vivo efficacy against Pseudomonas aeruginosa 5007 after subcutaneous administration", "assay_type": "functional", "details": "Pseudomonas aeruginosa, sc; read-out: ED50", "units": {"ED50": "mg/kg"}, "values": [{"smiles": "CC(NC(=O)C(C)NC1CCN(c2nc3c(-c4ccc(F)cc4F)cc(C(=O)O)c(=O)n3cc2F)C1)C(=O)O", "note": "(stereo not given)", "ED50": 14.8}, {"smiles": "CNC1CCN(c2c(F)cn3c(=O)c(C(=O)O)cc(C4CC4)c3c2C)C1", "note": "(stereo not given)", "ED50": 2.8}]}, {"target": "T1, DNA gyrase (Staphylococcus aureus)", "assay": "In vitro antibacterial activity against gram-positive organism Staphylococcus aureus ATCC 6538p", "assay_type": "functional", "details": "not given", "units": {"MIC": "µg/mL"}, "values": [{"smiles": "CNC1CCN(c2c(F)cn3c(=O)c(C(=O)O)cc(C4CC4)c3c2C)C1", "note": "(stereo not given)", "MIC": 0.02}]}, {"target": "T2, DNA gyrase (Escherichia coli)", "assay": "In vivo efficacy against Escherichia coli JUHL after oral administration", "assay_type": "functional, organism-based", "details": "Escherichia coli K-12", "units": {"ED50": "mg/kg"}, "values": [{"smiles": "CC(NC(=O)C(C)NC1CCN(c2nc3c(-c4ccc(F)cc4F)cc(C(=O)O)c(=O)n3cc2F)C1)C(=O)O", "note": "(stereo not given)", "ED50": 14.3}]}, {"target": "T2, DNA gyrase (Escherichia coli)", "assay": "In vitro antibacterial activity against gram-negative organism […] ATCC 13048", "assay_type": "functional", "details": "Enterobacter aerogenes", "units": {"MIC": "µg/mL"}, "values": [{"smiles": "CNC1CCN(c2c(F)cn3c(=O)c(C(=O)O)cc(C4CC4)c3c2C)C1", "note": "(stereo not given)", "MIC": 0.02}]}, {"target": "T1, DNA gyrase (Staphylococcus aureus)", "assay": "In vivo efficacy against Staphylococcus aureus NCTC-10649M after subcutaneous administration", "assay_type": "functional, organism-based", "details": "not given", "units": {"ED50": "mg/kg"}, "values": [{"smiles": "CC(NC(=O)C(C)NC1CCN(c2nc3c(-c4ccc(F)cc4F)cc(C(=O)O)c(=O)n3cc2F)C1)C(=O)O", "note": "(stereo not given)", "ED50": 2.8}, {"smiles": "CNC1CCN(c2c(F)cn3c(=O)c(C(=O)O)cc(C4CC4)c3c2C)C1", "note": "(stereo not given)", "ED50": 0.9}]}, {"tested_on": "Pseudomonas aeruginosa", "assay": "In vivo efficacy against Pseudomonas aeruginosa 5007 following p.o. administration.", "details": "not given", "units": {"ED50": "mg/kg"}, "values": [{"smiles": "CC(NC(=O)C(C)NC1CCN(c2nc3c(-c4ccc(F)cc4F)cc(C(=O)O)c(=O)n3cc2F)C1)C(=O)O", "note": "(stereo not given)", "ED50": 68.8}, {"smiles": "CNC1CCN(c2c(F)cn3c(=O)c(C(=O)O)cc(C4CC4)c3c2C)C1", "note": "(stereo not given)", "ED50": 7.2}]}, {"tested_on": "Enterococcus faecium", "assay": "Inhibitory activity against enterococcus faecium Van A", "assay_type": "functional", "details": "not given", "units": {"MIC": "µg/mL"}, "values": [{"smiles": "CNC1CCN(c2c(F)cn3c(=O)c(C(=O)O)cc(C4CC4)c3c2C)C1", "note": "(stereo not given)", "MIC": 0.5}]}, {"target": "T2, DNA gyrase (Escherichia coli)", "assay": "In vitro antibacterial activity against gram-positive organism Streptococcus bovis A-5169", "assay_type": "functional", "details": "Streptococcus equinus", "units": {"MIC": "µg/mL"}, "values": [{"smiles": "CNC1CCN(c2c(F)cn3c(=O)c(C(=O)O)cc(C4CC4)c3c2C)C1", "note": "(stereo not given)", "MIC": 0.1}]}, {"target": "T2, DNA gyrase (Escherichia coli)", "assay": "In vitro antibacterial activity against gram-negative organism Klebsiella pneumoniae ATCC 8045", "assay_type": "functional", "details": "not given", "units": {"MIC": "ng/mL"}, "values": [{"smiles": "CNC1CCN(c2c(F)cn3c(=O)c(C(=O)O)cc(C4CC4)c3c2C)C1", "note": "(stereo not given)", "MIC": 5}]}]}
